Columns and labels:
[1] = system: thrombin generation in platelet rich plasma; assay: Thrombin generation/thrombogram in platelet rich plasma, rat clopidogrel model; assay type: in vivo; details: clopidogrel treatment, or single agent given to clopidogrel treated rats
Protocol: When Haemate® P was administered to clopigogrel treated rats an earlier onset of thrombin formation was observed but no increase of peak thrombin.

[2] = system: clopidogrel treated rats; assay: Tail tip bleeding (total blood loss) in the rat clopidogrel model; assay type: in vivo
Protocol: The study was designed as an open seven-armed trial with 115 rats (+60 platelet donors).
3.2 mL blood were mixed with 0.8 mL trisodium citrate. Blood samples were pooled and centrifuged at 900 RPM for 30 minutes. Platelet-rich-plasma was collected into a fresh tube and centrifugated at 1800-2000 RPM for 15-17 minutes. The pellet was gently resuspended in Tyrode HEPES+0.3% BSA. Depending on platelet yield animals received 1.6−3×10^9 washed platelets intravenous into the tail vein.
Tablets were dissolved in isotonic saline and administered by gavage. On day 2 freshly prepared rat platelets were transfused into the tail vein by a bolus. Haemate® P was administered directly prior to platelet transfusion. 15 minutes after administration of platelets, blood loss was determined. The volume of total blood loss was calculated by measuring the HGB present in the saline used for submersion of the tail tip. The tail tip cut was performed with a scalpel knife under deep anesthesia, removing about 3 mm of the tail tip. Immediately upon lesion, the tail tip was submerged in saline, kept at the physiological body temperature of the rats using a water bath. The observation period to monitor bleeding was 30 min.
Blood loss was determined as the total blood loss (t=0-30 min) and analyzed by two-sided exact Wilcoxon test, box plot and Kaplan-Meier plot.

[3] = Group 1: Plavix/Isotonic saline, t=0-30 min

- Total blood loss, Maximum [2, 3]: 2345 µL
- Total blood loss, Mean [2, 3]: 1404.2 µL
- Total blood loss, Median [2, 3]: 1466 µL
- Total blood loss, Minimum [2, 3]: 265 µL
- total blood loss (result in words) ([2]; oral treatment with clopidogrel 2.5 mg/kg day 0 and day 1): increased total blood loss
SMILES: COC(=O)[C@H](c1ccccc1Cl)N1CCc2sccc2C1 [Plavix, clopidogrel]
- onset of thrombin formation [1]: later onset
- peak thrombin [1]: decrease in peak thrombin
